Measurements from US10435408B2, “Azepine derivatives as 5-HT7 receptor modulators” (KOREA INSTITUTE OF SCIENCE AND TECHNOLOGY, priority 2016, dated 2019).

Target: Human gene recombinant 5-HT7 receptor (Homo sapiens (Human), UniProt P34969)
Experiment: Measurement of binding affinity for serotonin 5-HT7 receptor ([3H]LSD radioligand binding)
Conditions: [3H]LSD 1 nM, 5-HT7 receptor membrane from CHO cells; for inhibition at 10 µM: 10 μM compound; for Ki: nonlinear regression
Method: Human gene recombinant 5-HT7 receptor expressed in Chinese hamster ovary (CHO) cells was used. [^3H]LSD 1 nM, the 5-HT7 receptor membrane (15 μg/well), each of the samples of Example 1-20 at various concentrations, 10 mM MgCl2, and 50 mM Tris-HCl buffer (pH 7.4) containing 0.1 mM EDTA were added to a vessel until the final volume reached 0.25 ml. The reaction mixture was incubated at 25° C. for 90 min. The incubated reaction mixture was rapidly passed through a Whatman GF/C glass fiber filter, which had been previously soaked with 0.3% polyethyleneimine, using a Brandel-Harvester to quench the reaction and washed with cold 50 mM Tris-HCl buffer. The filter was covered with MeltiLex, sealed in a sample bag, and dried in an oven. The radioactivity retained in the filter was counted using MicroBeta (Wallac). Non-specific binding was determined in the presence of 0.5 μM Mianserin.

Human gene recombinant 5-HT7 receptor, sequence (P34969 whole entry): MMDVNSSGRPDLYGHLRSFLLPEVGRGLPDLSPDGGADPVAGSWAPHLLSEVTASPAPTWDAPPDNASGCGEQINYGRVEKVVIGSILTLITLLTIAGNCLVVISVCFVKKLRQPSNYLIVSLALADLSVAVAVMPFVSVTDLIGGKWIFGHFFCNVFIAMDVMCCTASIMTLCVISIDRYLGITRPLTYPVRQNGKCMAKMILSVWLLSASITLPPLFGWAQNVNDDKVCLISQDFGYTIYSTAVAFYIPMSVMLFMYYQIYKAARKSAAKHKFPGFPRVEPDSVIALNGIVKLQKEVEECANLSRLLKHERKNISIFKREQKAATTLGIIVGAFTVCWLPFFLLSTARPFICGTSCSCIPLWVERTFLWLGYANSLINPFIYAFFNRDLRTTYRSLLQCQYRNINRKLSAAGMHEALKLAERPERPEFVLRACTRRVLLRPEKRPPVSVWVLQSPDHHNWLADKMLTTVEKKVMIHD

| SMILES | inhibition at 10 µM | Ki |
| --- | --- | --- |
| Clc1ccccc1-c1n[nH]c2c1CCNCC2 [Example 4, 3-(2-chlorophenyl)-1,4,5,6,7,8-hexahydropyrazolo[3,4-d]azepine] | 88.7% | 386 nM |
| Fc1ccccc1-c1noc2c1CCNCC2 [Example 11, 3-(2-fluorophenyl)-5,6,7,8-tetrahydro-4H-isoxazolo[4,5-d]azepine] | 77.9% | 366 nM |
| c1ccc(-c2n[nH]c3c2CCNCC3)cc1 [Example 1, 3-phenyl-1,4,5,6,7,8-hexahydropyrazolo[3,4-d]azepine] | 84.2% | 322 nM |
| Cc1ccc(-c2noc3c2CCNCC3)cc1 [Example 19, 3-(p-tolyl)-5,6,7,8-tetrahydro-4H-isoxazolo[4,5-d]azepine] | 96.3% | 16 nM |
| Fc1ccccc1-c1n[nH]c2c1CCNCC2 [Example 2, 3-(2-fluorophenyl)-1,4,5,6,7,8-hexahydropyrazolo[3,4-d]azepine] | 78.9% | 714 nM |
| COc1ccccc1-c1noc2c1CCNCC2 [Example 20, 3-(2-methoxyphenyl)-5,6,7,8-tetrahydro-4H-isoxazolo[4,5-d]azepine] | 87.9% | 303 nM |
| Clc1cccc(-c2noc3c2CCNCC3)c1 [Example 15, 3-(3-chlorophenyl)-5,6,7,8-tetrahydro-4H-isoxazolo[4,5-d]azepine] | 78.7% | 369 nM |
| Cc1cccc(-c2noc3c2CCNCC3)c1 [Example 18, 3-(m-tolyl)-5,6,7,8-tetrahydro-4H-isoxazolo[4,5-d]azepine] | 76.3% | 506 nM |
| Clc1cccc(-c2n[nH]c3c2CCNCC3)c1 [Example 5, 3-(3-chlorophenyl)-1,4,5,6,7,8-hexahydropyrazolo[3,4-d]azepine] | 79.2% | 883 nM |
| Cc1cccc(-c2n[nH]c3c2CCNCC3)c1 [Example 8, 3-(m-tolyl)-1,4,5,6,7,8-hexahydropyrazolo[3,4-d]azepine] | 63% | 1440 nM |
| Fc1ccc(-c2noc3c2CCNCC3)cc1 [Example 13, 3-(4-fluorophenyl)-5,6,7,8-tetrahydro-4H-isoxazolo[4,5-d]azepine] | 94.6% | 53 nM |
| Clc1ccc(-c2n[nH]c3c2CCNCC3)cc1 [Example 6, 3-(4-chlorophenyl)-1,4,5,6,7,8-hexahydropyrazolo[3,4-d]azepine] | 96.4% | 30 nM |
| c1ccc(-c2noc3c2CCNCC3)cc1 [Example 10, 3-phenyl-5,6,7,8-tetrahydro-4H-isoxazolo[4,5-d]azepine] | 84.3% | 319 nM |
| Cc1ccccc1-c1noc2c1CCNCC2 [Example 17, 3-(o-tolyl)-5,6,7,8-tetrahydro-4H-isoxazolo[4,5-d]azepine] | 41.8% | – |
| Clc1ccc(-c2noc3c2CCNCC3)cc1 [Example 16, 3-(4-chlorophenyl)-5,6,7,8-tetrahydro-4H-isoxazolo[4,5-d]azepine] | 93.8% | 70 nM |
| Fc1cccc(-c2noc3c2CCNCC3)c1 [Example 12, 3-(3-fluorophenyl)-5,6,7,8-tetrahydro-4H-isoxazolo[4,5-d]azepine] | 57.5% | 1410 nM |
| Cc1ccccc1-c1n[nH]c2c1CCNCC2 [Example 7, 3-(o-tolyl)-1,4,5,6,7,8-hexahydropyrazolo[3,4-d]azepine] | 68.5% | 881 nM |
| Clc1ccccc1-c1noc2c1CCNCC2 [Example 14, 3-(2-chlorophenyl)-5,6,7,8-tetrahydro-4H-isoxazolo[4,5-d]azepine] | 84.5% | 425 nM |
| Cc1ccc(-c2n[nH]c3c2CCNCC3)cc1 [Example 9, 3-(p-tolyl)-1,4,5,6,7,8-hexahydropyrazolo[3,4-d]azepine] | 94.2% | 47 nM |
| Fc1cccc(-c2n[nH]c3c2CCNCC3)c1 [Example 3, 3-(3-fluorophenyl)-1,4,5,6,7,8-hexahydropyrazolo[3,4-d]azepine] | 72.9% | 1240 nM |
